Reference: a melting point compilation (Tetko et al.; mined from patent text by program, amines drawn as free bases though some values may be those of a salt)

SMILES | melting point
CC(C)(C)OC(=O)Nc1c(F)cccc1OCc1ccccc1 | 103 to 106 °C
COc1ccc(CC(=O)c2ccc(OC)cc2O)cc1 | 101 to 102 °C
O=C(Cc1ccccc1)c1ccc(OC=C(F)F)cc1 | 81 to 85 °C
Cn1cnc2c(OC3SCC(O)C(O)C3O)cccc21 (stereo not drawn) | 180 °C
CC(C)S(=O)(=O)O[C@H]1C[C@@H](C(=O)O)N(C(=O)c2ccccc2Br)C1 | 139 to 140 °C
O=C1Nc2cc(Cl)ccc2Oc2cscc21 | 263 to 265 °C
Cc1ncccc1C(=O)NCC1CCN(C[C@H]2COc3cccc(Cl)c3O2)CC1 | 147 to 149 °C
COc1ccc(C=Cc2nc3c([nH]2)c(=O)n(C)c(=O)n3C)cc1OC | > 320 °C
CCC1=C(C)CN(C(=O)NC2COc3cc(OC)c(S(=O)(=O)NC(=O)NC)cc3C2)C1=O (stereo not drawn) | 245 to 246 °C
O=Cc1cnc2n1CCc1ccccc1C2=C1CCN(C2CCN(C(=O)c3cc(C(F)(F)F)cc(C(F)(F)F)c3)C(Cc3ccccc3)C2)CC1 (stereo not drawn) | 126 °C
CS(=O)(=O)c1cc(C(=O)N=C(N)N)ccc1C(F)(F)F | 146 to 147 °C
O=C(Nc1ccc(Cl)c(C(F)(F)F)c1)Oc1ccc2c(c1)CCCN2 | 150 °C
O=C1c2ccccc2C(O)N1CCN1CCC(c2noc3cc(F)ccc23)CC1 (stereo not drawn) | 172 to 173 °C
CN(CC(=O)O)c1ccc(C#N)cc1 | 64.5 °C
COC(=O)C1=Cc2cc(Br)cnc2N2CCCC2CC1 (stereo not drawn) | 98 to 99 °C
CCCCOC1c2ccccc2C(=O)N(CC2CC2)C1(/C=C/C(=O)OCC)CNC(=O)OC(C)(C)C (stereo not drawn) | 166 to 167 °C
COC(=O)c1cc2cc(OC)c(OC)cc2c(-c2ccnc(N3C(=O)CCc4ccccc43)c2)c1C(=O)OC | 229 to 233 °C
COC(=O)CCc1cc2cc(F)ccc2n1S(=O)(=O)c1ccccc1 | 79 to 80 °C
CC[C@@]12C[C@@](C)(O)[C@](O)(c3ccccc3)C[C@H]1CCc1cc(OCC(=O)O)ccc12 | 190 to 191 °C
COC(=O)CC(=O)c1cc2cc(OC)c(OC)cc2s1 | 129 to 130 °C
COC(=O)COc1ccc2cc(CNC(=O)c3cc(-c4ccc(Cl)cc4)oc3C(F)(F)F)ccc2c1 | 182 to 183 °C
CCOC(=O)Cc1cn(Cc2ccccc2)nc1O | 156 to 157 °C
Clc1nc2cccccc-2n1 | 162 to 163 °C
CCOC(=O)c1nc(C)c(SC)c(O)n1 | 139 °C
C[C@@H](C(N)=O)c1ccc(NS(C)(=O)=O)c(F)c1 | 40 to 42 °C
CCN(CC)c1ccc2nc3c4ccc(Br)cc4c(=Nc4ccccn4)cc-3oc2c1 | 204 to 205 °C

SMILES | melting point
O=C(NCc1ccc(Cl)cc1)c1cnc2c(OCCO)cc(CCCO)cc2c1O | 250 to 252 °C
C=CCNc1nc(C)ccc1C(=O)OC | 140 to 142 °C
COC(=O)CC[C@@H](NC(=O)[C@@H](NC(=O)OC(C)(C)C)[C@@H](C)OCc1ccccc1)C(N)=O | 131 to 132 °C
CSCCC(NC(C)=O)C(=O)N1CC1C#N (stereo not drawn) | 86 to 88 °C
O=C(NCCCCSc1ccncc1)c1ccccc1 | 75 to 77 °C
Cc1cc(=O)c2[nH]c3ccccc3c2s1 | 295 to 296 °C
O=C(O)c1cc2c([N+](=O)[O-])c(O)c(O)cc2oc1=O | > 300 °C
CCCCS(=O)(=O)NC(=O)C[C@H]1O[C@H](c2cccc(OC)c2OC)c2cc(Cl)ccc2N(CC(C)(C)CO)C1=O | 123 to 125 °C
CCOC(=O)C(NC(=O)NC)C(=O)OCC | 139 °C
C[C@H]1CC(=O)N1c1ccc(C(=O)OCc2ccccc2)cc1 | 89 °C
O=C1CSc2cccc(Cl)c2N1 | 160 to 161 °C
O=C(Nc1ccc(-n2nc(C(F)(F)F)cc2C(F)(F)F)cc1)c1cc(F)c(F)c(F)c1F | 138 to 140 °C
OC1CSC(Oc2cncc(-c3ncccc3Cl)c2)C(O)C1O (stereo not drawn) | 193 °C
CCCC1=C(C(=O)OCC)C(c2cccc(OC)c2OC)c2c[nH]nc2N1 (stereo not drawn) | 205 to 206 °C
Nc1c(Cl)c(C(F)(F)F)nn1-c1c(Cl)cc(C(F)(F)F)cc1Cl | 99 to 100 °C
CC(C)(C)OC(=O)c1ncn2c1C(C)(C)N(C(=O)N1CCCC1)c1cc(F)ccc1-2 | 168 to 170 °C
CC(C)(C)c1ccc(C[C@@H](NC(=O)c2ccc(F)c3ccccc23)[C@@H](O)c2ccc(F)cc2)cc1 (racemic) | 149 to 150 °C
CCOC(=O)c1cnn(-c2ccc(OC)cc2)c1Cl | 100 to 101 °C
CCOC(=O)c1cc(Cl)nc(SCc2ccc3ccccc3c2)n1 | 95 to 96 °C
O=C(Nc1ccccc1F)OC1CN2CCC1CC2 (stereo not drawn) | 124 to 126 °C
CCCC1(CC(=O)OCC)OCCc2c1[nH]c1c(C)cc(F)c(Br)c21 (stereo not drawn) | 137 to 138 °C
O=C1c2ccccc2N2CCCN3CCN1C32 (stereo not drawn) | 144 to 146 °C
CC(=O)NC[C@H]1CN(c2ccc(-n3cc(-c4ccc(Cl)cc4)cn3)c(F)c2)C(=O)O1 | 238 °C
COc1ccc(CCc2oc3ccc(Br)cc3c2CCl)cc1 | 70 to 75 °C
CCOC(=O)C1C(=O)c2ccccc2OC1C(F)(F)F (stereo not drawn) | 80.2 to 84.9 °C
Cc1cnc(N)c(Br)n1 | 51 to 52 °C

SMILES | melting point
CCCCn1c(=O)n(CCCC2CO2)c(=O)c2c1ncn2C (stereo not drawn) | 76 to 78 °C
Cc1ccc(-c2c(C#N)cnc3ccccc23)cc1 | 96 to 97 °C
CSc1nc(N)n(-c2ccccc2Oc2ccc(C)cc2O)n1 | 41 to 42 °C
NC(=O)c1ccccc1NC(=S)NC(=O)c1ccccc1 | 190 to 192 °C
CCCCn1cc(C(=O)C(=O)O)c2cc(-c3ccc(OC)cc3)ccc21 | 172 to 173 °C
CC(C)(C)c1cnc(CSc2cnc(NC(=O)Cc3ccc(OCCCC(=O)Nc4ccccn4)cc3)s2)o1 | 126 to 129 °C
CCC(Oc1ccccc1)C(=O)NCCO[N+](=O)[O-] (stereo not drawn) | 59 to 61 °C
C=CC[C@@H]1[C@H](O)[C@@H](O)C(=O)N1Cc1ccccc1 (relative stereo) | 90 to 93 °C
NCCc1c[nH]c2ccc(NC(=O)Nc3ccccc3)cc12 | 192 to 194 °C
COc1cc(OC)nc(C2(C#N)OC(=O)c3c(Cl)ccc(Cl)c32)n1 (stereo not drawn) | 123 to 126 °C
CCCCc1ncc(C=C2C(=O)Nc3ccccc32)n1Cc1ccc(C(=O)O)cc1 | 237 to 238 °C
O=C(O)C1=CCCCC1C(=O)O (stereo not drawn) | 201 to 203 °C
CN(C)C1(c2ccccc2)CCC(CC(=O)N2CCC(c3c[nH]c4ccccc34)C2)CC1 (stereo not drawn) | 98 to 100 °C
N#Cc1ccc(-c2cc(C(=O)O)c(=O)n(Cc3ccccc3)n2)cc1 | 254 to 256 °C
CSC(C#N)=C1CCN(c2ccc(N3C[C@H](CNC(C)=O)OC3=O)cc2F)CC1 | 205 to 207 °C
CCN(CCOc1ccc(Cl)c2[nH]cc(Cl)c12)c1ccsc1 | 123 to 125 °C
COc1ccc2c(c1)C(c1ccccc1)NC(=O)N2CC1CC1 (stereo not drawn) | 133 °C
CCCCCCCCCCCCCCCCCCNC(=O)OCC(CN)COC (stereo not drawn) | 84 to 85 °C
CN(C)C1CCc2[nH]c3cc(F)ccc3c2C1 (stereo not drawn) | 174 to 176 °C
Cc1cc(C)c([N+](=O)[O-])cc1N1CCCCC1=O | 134 to 135 °C
COc1ccc(OC)c(C2(O)CCCCC2C(c2ccccc2)N(C)C)c1 (stereo not drawn) | > 240 °C
CCOC(=O)/C=C/c1c(CC)cnc2c(NC(=O)c3c(Cl)cccc3Cl)cccc12 | 115 to 118 °C
C[C@@H](CN1CCc2ccc3c(c21)CCS3)NC(=O)OC(C)(C)C | 170 to 172 °C
COc1ccc(CN2Cc3cncn3C(c3ccc(-c4ccsc4)cc3)C2=O)cc1 (stereo not drawn) | 162 to 164 °C
CC(C)CCN1C(=O)C(NC(=O)Oc2ccccc2)C(=O)N(c2ccccc2)c2ccc(F)cc21 (stereo not drawn) | 160 to 165 °C
COC(=O)c1ccc(Cc2cccc3ccc(NC(=O)CC4CCCC4)cc23)c(OC)c1 | 172 to 174 °C

SMILES | melting point
COC(=O)c1ccsc1 | 84 to 85 °C
CCCSc1cn(C)cc(-c2cccc(C(F)(F)F)c2)c1=O | 101 to 102 °C
O=C1CC2Cc3ccccc3C2N1 (stereo not drawn) | 150 to 153 °C
COc1cccc2nc(-c3ccc4c(c3)NC(=O)C4(C)C)[nH]c12 | 222 to 225 °C
COC(=O)c1ccc(COc2cccc(-c3c(C(=O)c4ccccc4)cnc4c(C(F)(F)F)cccc34)c2)c(OC)c1 | 60 to 63 °C
COc1cc2c(cc1OC)C(C(CO)CO)N(C(=O)c1ccccc1)CC2 (stereo not drawn) | 161 to 163 °C
COc1cc(OC)nc(Oc2cccc(Oc3nc(OC)cc(OC)n3)c2CO)n1 | 122 °C
CC1CCc2c(N3CCC(O)CC3)ccc3c(=O)c(C(=O)O)cn1c23 (stereo not drawn) | 238 to 240 °C
Cn1c(=O)on(-c2cc(F)ccc2F)c1=O | 66 to 68 °C
COCOc1cccc2c(=O)[nH]c(CCCCN(C)C)cc12 | 109 to 111 °C
CN(CCCN1C(=O)CSC1c1cc(C(C)(C)C)c(O)c(C(C)(C)C)c1)CCOc1ccc2c(c1)OCO2 (stereo not drawn) | 70 to 71 °C
CCCCn1c(=O)c2c(ncn2S(=O)(=O)c2cccs2)n(CCCC)c1=O | 145 to 146 °C
COc1cc(OC)c2c(=O)cc(S)oc2c1C1CCN(C)CC1O (stereo not drawn) | 184 to 185 °C
N#Cc1ccc(-c2ccc3oc(CCN)cc3c2)cc1 | 118 to 120 °C
CC1OC(n2cnc3c(N)nc(F)nc32)C(O)C1O (stereo not drawn) | 244 to 245 °C
C=CCSc1ccc(Oc2cccc(C)c2)nn1 | 48 to 50 °C
NC(=O)C1=CN(CCCC(=O)NCCc2ccccc2)C=CC1 | 55 to 60 °C
COc1ccc(Nc2ccc(OCc3ccccc3)cc2)c(C(=O)O)c1 | 167 to 168 °C
COc1nc(C#N)c(C#N)[nH]1 | 137 to 138 °C
COc1cc2c(cc1Br)CCOC2c1ccc([N+](=O)[O-])cc1 (stereo not drawn) | 144 to 147 °C
O=C(NCCO)C(Oc1ccc(F)c(C(F)(F)F)c1)c1ccc(Cl)cc1 (stereo not drawn) | 95 °C
O=[N+]([O-])c1cn2c(n1)O[C@@H](CN1CCN(Cc3ccc(-c4ccccc4)cc3)CC1)C2 | 207 to 208 °C
CCOC(=O)N(CC(=O)O)C(=O)c1c(Cl)ccc2c(C(F)(F)F)c(OC)ccc12 | 144 to 146 °C
CC(C)(C)OC(=O)Cn1ccn(C2CCc3ccccc3C2)c1=S (stereo not drawn) | 167 to 169 °C
CC(C)(C)c1ccc(-c2ccc3c(c2)C=C(C(=O)O)CCS3(=O)=O)cc1 | 289 to 291 °C
